Assay results: US12485078B2, “Personal dental care product for caries treatment” (Credentis AG, priority 2016, dated 2025)

Columns and labels:
[1] = pH at which the peptide starts to undergo self-assembly; type: physicochemical; details: in solution
From the text: As used herein, the pH at which the self-assembling peptide starts to undergo self-assembly refers to the pH below which a significant extent of self-assembly of the peptides in solution is observed, which means that at least about 25%, about 30%, about 35%, about 40%, about 45%, about 50%, about 55%, about 60%, about 65%, about 70%, about 75%, about 80%, about 85%, about 90%, about 95%, about 99% or even about 100% of the peptides found in the dental care product are assembled. In a preferred embodiment, at least about 25% of the peptides found in the dental care product are assembled below the pH at which the peptide starts to undergo self-assembly.
Further, the skilled person is aware of numerous methods to determine the pH at which a peptide of the present invention will start self-assembly at a given ionic strength. Suitable methods are denoted e.g. in a publication by Aggeli et al. (2003, J Am Chem Soc, 125, 9619-9628).

[2] = Penetration of P11-4 (200 ppm, spiked with 10 ppm ATTO647-P11-4, 25 mM TRIS) into artificial subsurface lesions, confocal microscopy; set-up: species or system human; key to presence of fluorescent P11-4 in lesion, 6 d / presence of fluorescent P11-4 in lesion, 1 min / presence of fluorescent P11-4 in lesion, 2 min / presence of fluorescent P11-4 in lesion, 5 min / presence of fluorescent P11-4 in lesion, 4 d: 1 = no or low presence; 4 = high presence of fluorescent P11-4; Average presence of P11-4: scale not given here; details: for presence of fluorescent P11-4 in lesion, 1 min: 1 min incubation; for presence of fluorescent P11-4 in lesion, 2 min: 2 min incubation; for presence of fluorescent P11-4 in lesion, 5 min: 5 min incubation; for presence of fluorescent P11-4 in lesion, 6 d: washing in H2O; for presence of fluorescent P11-4 in lesion, 4 d: washing in Remin. buffer
Experimental: Creation of artificial lesions on extracted human molar teeth was performed as described by Lo et al. 2010 (J Dent. 38(4):352-359). To define the position of the demineralized subsurface area (i.e., artificial carious lesion or white spot), the tooth was covered with colourless nail varnish, leaving a window of approximately 4×4 mm. The tooth was placed in demineralization buffer (2.2 mM CaCl2, 2.2 mM NaH2PO4, 50 mM acetic acid; pH adjusted with 1 M KOH to 4.4) for 3 d at 37° C. To ensure that all pores are open, as in a typical active caries lesion, the resulting subsurface lesions were treated with 10 μL of 2% NaClO (incubation for 1 min), rinsed, and air-dried at room temperature.
• A 200 ppm (i.e., 200 μg/ml) solution of P11-4 (SEQ ID NO: 2), spiked with 10 ppm ATTO647-P11-4 (fluorescence labelled P11-4 (SEQ ID NO: 6): Ac-QQRFEWEFEQQSGSGC-(ATTO647)-NH2), i.e., 1:20, in 25 mM TRIS buffer was prepared at different pH, in particular, at 8.4 or 8.5 or 6.3, 6.5 or 6.8) • As specified in the table below, tooth were optionally pretreated, e.g., by incubation in human saliva for one day (about 24 hours), optionally followed by 5 min sonication (258 hz with a sonic toothbrush, Sonicare Diamond Clean® (Philips)) or by immersion in 2% NaClO for 1 min. • Tooth were immersed in the P11-4 solution for a defined period of time, 1, 2 or 5 min, and then removed and washed in water for 10 min or in remineralization buffer (2 mM Ca(NO3), 1.2 mM KHPO4, and 60 mM Tris/HCl, pH adjusted to 7.4 with 1 M KOH) for 4 days and/or 6 days. • Confocal assessment after 1, 2 or 5 min incubation was carried out while the teeth were in P11-4 solution, and optionally, after washing in water or in remineralization buffer after 10 min or 4 or 6 days. c) Confocal Microscopy
Samples were placed in a μ-slide I (ibidi, Martinsried) in dest. water and analyzed by a confocal laser microscope (Olympus IX81). The recorded stack of four 2-dimensional images each projected the lesion volume of 51.4 μm thickness, giving a total assessment depth of 205 μm (objective: UPLSAPO 20×/NA 0.75; helium-neon gas laser; excitation: 633 nm and emission: 668 nm). Images were analyzed by Olympus software (FluoView FV1000).

[3] = 200 ppm in a slightly basic buffer
[4] = tooth 1, pH 8.4, no pretreatment
[5] = tooth 2, pH 8.4, no pretreatment
[6] = tooth 3, pH 6.3, saliva pre-incubation
[7] = tooth 4, pH 6.3, no pretreatment
[8] = tooth 5, pH 8.5, saliva pre-incubation
[9] = tooth 10, pH 8.5, no pretreatment
[10] = tooth 11, pH 8.5, saliva pre-incubation
[11] = tooth 12, pH 6.5, no pretreatment
[12] = tooth 13, pH 6.8, saliva pre-incubation
[13] = tooth ZR1, pH 8.5, sonification pretreatment
[14] = tooth ZR2, pH 8.5, saliva pre-incubation then NaClO
[15] = tooth ZR3, pH 8.5, saliva pre-incubation then sonification
[16] = tooth ZR4, pH 8.5, saliva pre-incubation

CH3CO-QQRFEWEFEQQ-NH2 (Ac-QQRFEWEFEQQ-NH2) [terminally modified P11-4]
pH at which the self-assembling peptides start to undergo self-assembly [1]: about 7.5

Ac-QQRFEWEFEQQSGSGC-(ATTO647)-NH2 (Ac-QQRFEWEFEQQSGSGC(ATTO647)-NH2) [fluorescent P11-4]
diffusion of monomeric peptide into artificial carious lesions [2, 3]: can diffuse into the artificial carious lesions and form a stable network there | peptide detected outside the lesions [2, 3]: No significant amounts | effect of pre-incubation with human saliva (pellicle) on presence of fluorescent peptide on the tooth or in the lesions ([2]; pH 8.5, 1, 2, or 5 min, teeth 11, 5 and ZR4, versus no pre-incubation): significantly lower presence | Average presence of P11-4 [2, 4]: 2.7 | presence of fluorescent P11-4 in lesion, 1 min [2, 4]: 4 | presence of fluorescent P11-4 in lesion, 2 min [2, 4]: 2 | presence of fluorescent P11-4 in lesion, 5 min [2, 4]: 2 | presence of fluorescent P11-4 in lesion, 1 min [2, 5]: 1 | presence of fluorescent P11-4 in lesion, 2 min [2, 5]: 3 | presence of fluorescent P11-4 in lesion, 5 min [2, 5]: 3 | Average presence of P11-4 ([2]; tooth 2, pH 8.4, no pretreatment, H2O wash): 2.0 | presence of fluorescent P11-4 in lesion, 6 d [2, 5]: 1 | presence of fluorescent P11-4 in lesion, 1 min [2, 6]: 1 | presence of fluorescent P11-4 in lesion, 2 min [2, 6]: 1 | presence of fluorescent P11-4 in lesion, 5 min [2, 6]: 1 | Average presence of P11-4 ([2]; tooth 3, pH 6.3, saliva pre-incubation, H2O wash): 1.0 | presence of fluorescent P11-4 in lesion, 6 d [2, 6]: 1 | presence of fluorescent P11-4 in lesion, 1 min [2, 7]: 1 | presence of fluorescent P11-4 in lesion, 2 min [2, 7]: 1 | presence of fluorescent P11-4 in lesion, 5 min [2, 7]: 2 | Average presence of P11-4 ([2]; tooth 4, pH 6.3, no pretreatment, H2O wash): 1.3 | presence of fluorescent P11-4 in lesion, 6 d [2, 7]: 1 | Average presence of P11-4 [2, 8]: 1.3 | presence of fluorescent P11-4 in lesion, 1 min [2, 8]: 2 | presence of fluorescent P11-4 in lesion, 2 min [2, 8]: 1 | presence of fluorescent P11-4 in lesion, 5 min [2, 8]: 1 | presence of fluorescent P11-4 in lesion, 1 min [2, 9]: 1 | presence of fluorescent P11-4 in lesion, 2 min [2, 9]: 4 | presence of fluorescent P11-4 in lesion, 5 min [2, 9]: 4 | Average presence of P11-4 ([2]; tooth 10, pH 8.5, no pretreatment, Remin. buffer wash): 2.8 | presence of fluorescent P11-4 in lesion, 4 d [2, 9]: 2 | presence of fluorescent P11-4 in lesion, 1 min [2, 10]: 1 | presence of fluorescent P11-4 in lesion, 2 min [2, 10]: 1 | presence of fluorescent P11-4 in lesion, 5 min [2, 10]: 1 | Average presence of P11-4 ([2]; tooth 11, pH 8.5, saliva pre-incubation, Remin. buffer wash): 1.0 | presence of fluorescent P11-4 in lesion, 4 d [2, 10]: 1 | presence of fluorescent P11-4 in lesion, 1 min [2, 11]: 2 | presence of fluorescent P11-4 in lesion, 2 min [2, 11]: 3.5 | presence of fluorescent P11-4 in lesion, 5 min [2, 11]: 2 | Average presence of P11-4 ([2]; tooth 12, pH 6.5, no pretreatment, Remin. buffer wash): 2.1 | presence of fluorescent P11-4 in lesion, 4 d [2, 11]: 1 | presence of fluorescent P11-4 in lesion, 1 min [2, 12]: 1 | presence of fluorescent P11-4 in lesion, 2 min [2, 12]: 2 | presence of fluorescent P11-4 in lesion, 5 min [2, 12]: 2 | Average presence of P11-4 ([2]; tooth 13, pH 6.8, saliva pre-incubation, Remin. buffer wash): 1.5 | presence of fluorescent P11-4 in lesion, 4 d [2, 12]: 1 | Average presence of P11-4 [2, 13]: 4.0 | presence of fluorescent P11-4 in lesion, 1 min [2, 13]: 4 | presence of fluorescent P11-4 in lesion, 2 min [2, 13]: 4 | presence of fluorescent P11-4 in lesion, 5 min [2, 13]: 4 | Average presence of P11-4 [2, 14]: 3.7 | presence of fluorescent P11-4 in lesion, 1 min [2, 14]: 3 | presence of fluorescent P11-4 in lesion, 2 min [2, 14]: 4 | presence of fluorescent P11-4 in lesion, 5 min [2, 14]: 4 | Average presence of P11-4 [2, 15]: 2.3 | presence of fluorescent P11-4 in lesion, 1 min [2, 15]: 1 | presence of fluorescent P11-4 in lesion, 2 min [2, 15]: 3 | presence of fluorescent P11-4 in lesion, 5 min [2, 15]: 3 | Average presence of P11-4 [2, 16]: 1.3 | presence of fluorescent P11-4 in lesion, 1 min [2, 16]: 1 | presence of fluorescent P11-4 in lesion, 2 min [2, 16]: 1 | presence of fluorescent P11-4 in lesion, 5 min [2, 16]: 2
